Test results: patent US10189785B2, “Heterocyclic compound” (TAKEDA PHARMACEUTICAL COMPANY LIMITED, priority 2015, dated 2019)

Assays:
[1] = target: T1, SPT (SPT2-expressing membrane fraction: human SPT1, human SPT2 and human ssSPTa) (Homo sapiens, UniProt O15269+O15270); experiment: SPT enzyme inhibition test (Test Example 1); type: biochemical; settings: for inhibition at 1 µM: read-out: Rate of inhibition (%) at 1 μM
T1 construct: Full-length human SPT1, human SPT2 and human ssSPTa used; made in house; host or cells: FreeStyle 293 cells (pcDNA3.1 vectors, cotransfection); crude membrane fraction used
T1 sequence (O15269 1-473): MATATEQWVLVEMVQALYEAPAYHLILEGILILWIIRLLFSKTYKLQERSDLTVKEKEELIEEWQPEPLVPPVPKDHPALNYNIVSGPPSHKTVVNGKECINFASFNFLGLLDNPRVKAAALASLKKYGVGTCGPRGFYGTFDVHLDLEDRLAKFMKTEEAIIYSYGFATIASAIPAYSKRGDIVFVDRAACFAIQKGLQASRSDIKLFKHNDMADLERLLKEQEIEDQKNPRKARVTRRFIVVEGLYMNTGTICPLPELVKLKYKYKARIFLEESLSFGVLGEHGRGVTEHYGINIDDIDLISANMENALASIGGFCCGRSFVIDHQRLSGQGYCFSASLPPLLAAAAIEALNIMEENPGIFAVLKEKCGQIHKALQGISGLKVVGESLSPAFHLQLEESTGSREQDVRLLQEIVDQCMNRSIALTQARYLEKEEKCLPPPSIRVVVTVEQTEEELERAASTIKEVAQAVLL
T1 sequence (O15270 1-562): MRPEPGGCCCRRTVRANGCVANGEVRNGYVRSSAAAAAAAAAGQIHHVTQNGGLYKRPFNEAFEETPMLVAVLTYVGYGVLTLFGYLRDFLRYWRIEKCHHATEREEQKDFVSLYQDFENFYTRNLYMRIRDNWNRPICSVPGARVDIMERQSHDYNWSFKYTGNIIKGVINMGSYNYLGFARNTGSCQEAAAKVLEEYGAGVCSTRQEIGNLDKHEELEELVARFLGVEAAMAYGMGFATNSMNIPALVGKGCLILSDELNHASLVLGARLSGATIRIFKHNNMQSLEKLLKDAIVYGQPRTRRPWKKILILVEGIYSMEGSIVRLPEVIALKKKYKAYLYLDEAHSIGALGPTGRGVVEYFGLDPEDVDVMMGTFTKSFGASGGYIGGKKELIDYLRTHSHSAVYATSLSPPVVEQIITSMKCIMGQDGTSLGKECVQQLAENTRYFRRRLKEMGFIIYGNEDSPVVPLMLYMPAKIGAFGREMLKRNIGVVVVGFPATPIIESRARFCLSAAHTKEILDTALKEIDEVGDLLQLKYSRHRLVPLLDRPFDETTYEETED
T1 sequence (Q969W0 1-71 partner): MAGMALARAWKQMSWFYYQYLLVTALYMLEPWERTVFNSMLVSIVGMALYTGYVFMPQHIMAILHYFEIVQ
Method: After culture for 3 days, the cells were recovered and frozen at −80° C. to obtain expressing cells. The frozen cells were suspended in a 50 mM Hepes buffer (pH 7.5) containing 250 mM sucrose, 5 mM ethylenediaminetetraacetic acid (EDTA), 5 mM dithiothreitol (DTT) and Complete, EDTA-free (Roche Applied Science, Penzberg, Upper Bavaria, Germany). The cells were disrupted (on ice, 20,000 rpm, 20 sec×2) using POLYTORON (Central Scientific Commerce, Inc.). After centrifugation at 2000 rpm (850×g) for 10 minutes, the supernatant was recovered. Subsequently, the supernatant was centrifuged at 40,000 rpm (186,010×g) for 60 minutes, and the supernatant was discarded. The pellets were suspended in a 50 mM Hepes buffer (pH 7.5) containing 5 mM EDTA, 5 mM DTT and Complete, EDTA-free, passed through a 40-μm cell strainer and stored at −80° C. The resultant was used as a SPT2-expressing membrane fraction. The protein concentration was determined using CBB Protein Assay with bovine serum albumin used as standards.
5 μL of each test compound was mixed with 10 μL of the 100 μg/mL SPT2-expressing membrane fraction using an assay buffer (100 mM Hepes (pH 8.0) containing 2.5 mM EDTA, 5 mM DTT and 0.01% fatty acid-free bovine serum albumin), and the mixture was left standing at room temperature for 60 minutes. Subsequently, 5 μL of a substrate solution containing 2 mM L-serine and 20 μM palmitoyl CoA was added thereto, and an enzyme reaction was carried out in a 384-well plate using 20 μL in total of the reaction system. After reaction at room temperature for 15 minutes, the reaction was terminated by the addition of 20 μL of a 2% aqueous formic acid solution. Subsequently, 40 μL of acetonitrile containing 600 nM C17-sphinganine (Avanti Polar Lipids, Inc., Alabaster, Ala., U.S.) was added thereto as an internal standard. The reaction sample was subjected to on-line solid-layer extraction using RapidFire 300 (Agilent Technologies Inc., Santa Clara, Calif., U.S.). […] Mass chromatograms were obtained using Analyst software (version 1.5.0, AB SCIEX). Their mass chromatogram areas were respectively calculated, and the rate of inhibition (%) by the test compound was calculated using an area ratio (the value of the reaction product was divided by the value of the internal standard).

[2] = test system: lung adenocarcinoma cell line HCC4006; experiment: HCC4006 cell growth inhibition test (Test Example 2); type: cell-based; settings: 1 μM test compound, HCC4006 cells, culture for 5 days, CellTiter-Glo; for inhibition at 1 µM: Homo sapiens, 120 h, read-out: Rate of inhibition (%) at 1 μM
Method: A lung adenocarcinoma cell line HCC4006 (ATCC) was cultured using an RPMI-1640 medium (Wako Pure Chemical Industries, Ltd.) containing 10% fetal bovine serum and penicillin/streptomycin. 250 cells per well were inoculated into 40 μL of a medium in a 384-well culture plate. On the next day, 10 μL of each test compound was added to the cells. After culture for 5 days, the medium was discarded, and 30 μL of CellTiter-Glo Luminescent Cell Viability Assay solution (Promega Corp., Fitchburg, Wis., U.S.) was added to each well. Light emission signals were measured using EnVision (PerkinElmer, Inc., Waltham, Mass., U.S.).
The rate of inhibition (%) by the test compound was calculated according to the following expression: Rate of inhibition (%)=(1−(Count of the test compound−Blank)/(Control−Blank))×100
In the above expression, a count under compound non-addition conditions was indicated as a control, and a count under cell-free conditions was indicated as a blank.

Molecule `COc1ccc(C(=O)N2CC[C@H](NC(=O)c3ccccc3Cl)[C@H](c3ccc(F)cc3)C2)cc1OC` (relative stereo) [Example 114B, 2-chloro-N-(cis-1-(3,4-dimethoxybenzoyl)-3-(4-fluorophenyl)piperidin-4-yl)benzamide] has an inhibition at 1 µM [1] of 99% and an inhibition at 1 µM [2] of 56%.

Work on `COc1ccc(C(=O)N2CCC(NC(=O)c3ccccc3Cl)c3c2cnn3C)cc1OC` (stereo not drawn) [Example 2A, 2-Chloro-N-(4-(3,4-dimethoxybenzoyl)-1-methyl-4,5,6,7-tetrahydro-1H-pyrazolo[4,3-b]pyridin-7-yl)benzamide] yielded an inhibition at 1 µM [2] of 36%.

`COc1ccc(C(=O)N2CC[C@@H](NC(=O)c3ccccc3Cl)[C@@H](c3ccccc3)C2)cc1OC` [Example 2B, 2-chloro-N-((3S,4R)-1-(3,4-dimethoxybenzoyl)-3-phenylpiperidin-4-yl)benzamide] gave an inhibition at 1 µM [2] of 55%.

With `COc1ccc(C(=O)N2CCC(NC(=O)c3ccccc3Cl)c3cn(C)nc32)cc1OC` (stereo not drawn) [Example 3A, 2-Chloro-N-(7-(3,4-dimethoxybenzoyl)-2-methyl-4,5,6,7-tetrahydro-2H-pyrazolo[3,4-b]pyridin-4-yl)benzamide] the inhibition at 1 µM [1] was 98% and the inhibition at 1 µM [2] was 41%.

Work on `COc1ccc(C(=O)N2CC[C@@H](NC(=O)c3ccccc3Cl)[C@H](c3ccccc3)C2)cc1OC` [Example 3B, 2-chloro-N-((3R,4R)-1-(3,4-dimethoxybenzoyl)-3-phenylpiperidin-4-yl)benzamide] yielded an inhibition at 1 µM [2] of 44%.

For `Cc1cc(C(=O)N[C@@H]2CCN(C(=O)c3cc(Cl)c4nccnc4c3)C[C@@H]2c2ccccc2)n(C)n1` [Example 23B, N-((3S,4R)-1-((8-Chloroquinoxalin-6-yl)carbonyl)-3-phenylpiperidin-4-yl)-1,3-dimethyl-1H-pyrazole-5-carboxamide], the inhibition at 1 µM [1] was 101% and the inhibition at 1 µM [2] was 53%.

For `CN(C)CCOc1ccc(C(=O)N[C@@H]2CCN(C(=O)c3cc(Cl)c4nccnc4c3)C[C@@H]2c2ccccc2)cn1` [Example 25B, N-((3S,4R)-1-((8-chloroquinoxalin-6-yl)carbonyl)-3-phenylpiperidin-4-yl)-6-(2-(dimethylamino)ethoxy) nicotinamide], the “Rate of inhibition (%) at 1 μM” value ([1]; 1 μM test compound, SPT2-expressing membrane fraction) was 100% and the “Rate of inhibition (%) at 1 μM” value [2] was 53%.

`O=C(N[C@@H]1CCN(C(=O)c2cc(Cl)c3nccnc3c2)C[C@@H]1c1ccccc1)c1ncccc1OC(F)F` [Example 31B, N-((3S,4R)-1-((8-Chloroquinoxalin-6-yl)carbonyl)-3-phenylpiperidin-4-yl)-3-(difluoromethoxy)pyridine-2-carboxamide] showed an inhibition at 1 µM [1] of 102% and an inhibition at 1 µM [2] of 57%.

`Cc1cc(NC(=O)C2CC2)sc1C(=O)N1CC[C@@H](NC(=O)c2ccccc2OC(F)(F)F)[C@@H](c2ccccc2)C1` [Example 35B, N-((3S,4R)-1-((5-((cyclopropylcarbonyl)amino)-3-methyl-2-thienyl)carbonyl)-3-phenylpiperidin-4-yl)-2-(trifluoromethoxy)benzamide] gave an inhibition at 1 µM [1] of 101% and an inhibition at 1 µM [2] of 40%.

Work on `COc1ccc(C(=O)N2CCC(NC(=O)c3ccccc3Cl)c3c2cnn3C(C)C)cc1OC` (stereo not drawn) [Example 36A, 2-Chloro-N-(4-(3,4-dimethoxybenzoyl)-1-isopropyl-4,5,6,7-tetrahydro-1H-pyrazolo[4,3-b]pyridin-7-yl)benzamide] yielded an inhibition at 1 µM [2] of 47%.

Molecule `CN(C)CCOc1cc(C(F)(F)F)c(C(=O)N[C@@H]2CCN(C(=O)c3cc(Cl)c4nccnc4c3)C[C@@H]2c2ccccc2)cn1` [Example 38B, N-((3S,4R)-1-((8-chloroquinoxalin-6-yl)carbonyl)-3-phenylpiperidin-4-yl)-6-(2-(dimethylamino)ethoxy)-4-(trifluoromethyl)nicotinamide] has an inhibition at 1 µM [1] of 101% and an inhibition at 1 µM [2] of 46%.

`COc1ccc(C(=O)N2CC[C@@H](NC(=O)c3ncccc3C(F)(F)F)[C@@H](c3ccccc3)C2)nc1OC` [Example 44B, N-((3S,4R)-1-((5,6-dimethoxypyridin-2-yl)carbonyl)-3-phenylpiperidin-4-yl)-3-(trifluoromethyl)pyridine-2-carboxamide] gave an inhibition at 1 µM [1] of 98% and an inhibition at 1 µM [2] of 47%.

Work on `O=C(N[C@@H]1CCN(C(=O)c2ccc3nccnc3c2)C[C@@H]1c1ccccc1)c1ccccc1OC(F)(F)F` [Example 57B, N-((3S,4R)-3-phenyl-1-(quinoxalin-6-ylcarbonyl)piperidin-4-yl)-2-(trifluoromethoxy) benzamide] yielded an inhibition at 1 µM [1] of 96% and an inhibition at 1 µM [2] of 54%.

Work on `COc1ccc(C(=O)N2CC[C@H](NC(=O)c3ccccc3Cl)c3c2cnn3C(C)C)cc1OC` [Example 74A, 2-Chloro-N-((7S)-4-(3,4-dimethoxybenzoyl)-1-isopropyl-4,5,6,7-tetrahydro-1H-pyrazolo[4,3-b]pyridin-7-yl)benzamide] yielded an inhibition at 1 µM [2] of 51%.

`COc1cc(C(=O)N2CCC(NC(=O)c3ccccc3OC(F)(F)F)c3c2cnn3C(C)C)cnc1OC` (stereo not drawn) [Example 132A, N-(4-((5,6-Dimethoxypyridin-3-yl)carbonyl)-1-isopropyl-4,5,6,7-tetrahydro-1H-pyrazolo[4,3-b]pyridin-7-yl)-2-(trifluoromethoxy)benzamide] was tested, and the inhibition at 1 µM [2] was 52%.

With `COc1ccc(C(=O)N2CCC(NC(=O)c3ccccc3Cl)c3c(C)nn(C)c32)cc1OC` (stereo not drawn) [Example 172A, 2-Chloro-N-(7-(3,4-dimethoxybenzoyl)-1,3-dimethyl-4,5,6,7-tetrahydro-1H-pyrazolo[3,4-b]pyridin-4-yl)benzamide] the inhibition at 1 µM [1] was 93%.

In the case of `COc1ccc(C(=O)N2CCC(NC(=O)c3ccccc3Cl)c3ccc(Cl)cc32)cc1OC` (stereo not drawn) [Example 201A, 2-Chloro-N-(7-chloro-1-(3,4-dimethoxybenzoyl)-1,2,3,4-tetrahydroquinolin-4-yl)benzamide], the inhibition at 1 µM [2] is reported as 40%.

Molecule `COc1ccc(C(=O)N2CCC(NC(=O)c3ccccc3Cl)c3ccc(Cl)nc32)cc1OC` (stereo not drawn) [Example 217A, 2-Chloro-N-(7-chloro-1-(3,4-dimethoxybenzoyl)-1,2,3,4-tetrahydro-1,8-naphthyridin-4-yl)benzamide] has an inhibition at 1 µM [1] of 102%.
